Key:
[1] = Solvency of solvents for (S)-Equol (visual solubility after storage); details: solute (S)-Equol, 6% test solution, approximately 1:16 solute to solvent ratio, soluble = no visible crystals
Protocol: (§1) In the testing provided below, “soluble” (or “solubilize”), in relation to the solubility of a solid solute being tested, means that no visible crystals may be seen after a prescribed storage period at a storage condition. The storage period can vary. Suitable storage periods include about 24 hours, about 1 week, and about 30 days. Suitable storage conditions include ambient conditions or cold storage at 5° C. (approximately 1 atm). In certain embodiments, solubility may be determined after a 24 hour storage period at ambient conditions. In other embodiments, solubility may be determined after 20 days in cold storage. Other testing parameters may include storage for prolonged time periods (e.g., 30 day, 50 days, 60 days, 90 days) and at variable temperatures (e.g., 5° C., 50° C.).
The solvency of an isosorbide diester within the scope of the present invention was tested against two conventional, industry standard solvents. […] A test solution was of 6% Equol is prepared with heating to 70° C. Upon reaching 70° C., the examples may be mixed for about 10 minutes. Place mixtures in a covered vial and cool to the storage temperature. Solubility is evaluated for samples stored 24 hours at ambient conditions. Solubility is also evaluated for samples stored for 7 day at 5° C. followed by equilibration to ambient conditions.

[2] = Solvency of solvents for hexylresorcinol (visual solubility after storage); details: solute hexylresorcinol, 33.5% test solution, approximately 1:2 solute to solvent ratio, soluble = no visible crystals
Protocol: as §1
The solvency of an isosorbide diester within the scope of the present invention was tested against two conventional, industry standard solvents. […] A test solution of 33.5% hexylresorcinol is prepared with heating to 70° C. Upon reaching 70° C., the examples may be mixed for about 10 minutes. Place mixtures in a covered vial and cool to the storage temperature. Solubility is evaluated for samples stored 24 hours at ambient conditions. Solubility is also evaluated for samples stored for 7 day at 5° C. followed by equilibration to ambient conditions.

[3] = Solvency of solvents for tetrahydrocurcuminoids (THC) (visual solubility after storage); details: solute tetrahydrocurcuminoids (THC), 3% test solution, approximately 1:32 solute to solvent ratio, soluble = no visible crystals
[4] = then equilibration to ambient conditions

CCCCCCCCCCCC(=O)N(C)CC(=O)OC(C)C [Isopropyl lauroyl sarcosinate, isopropyl lauroyl sarcosinate]
Soluble: Solubility, 24 hour rest at Ambient Conditions ([1]; prepared at 70° C.) | Solubility, 7 day storage at 5° C. [1, 4] | Solubility, 24 hour rest at Ambient Conditions ([2]; prepared at 70° C.) | Solubility, 7 day storage at 5° C. [2, 4] | Solubility, 24 hour rest at Ambient Conditions ([3]; prepared at 70° C.) | Solubility, 7 day storage at 5° C. [3, 4]

— patent US20130011347A1, “Personal Care Compositions With Improved Solubility of a Solid Cosmetic Active” (priority 2011, published 2013)
